Results on 18 compounds are retold here after patent US20260132132A1, “3A,4,5,6-TETRAHYDRO-1 H-PYRAZOLO[3,4-C]PYRIDIN-7(7AH)-ONE DERIVATIVES AS FACTOR XIIA INHIBITORS” (KALVISTA PHARMACEUTICALS LIMITED, priority 2022, published 2026).

Bounds are passed on as bounds.

Experiment [1] addresses T1, Human Factor XIIa (hFXIIa) (Homo sapiens, UniProt P00748).
T1 construct: purchased Enzyme Research Laboratories
T1 sequence (P00748 373-615 limits assumed): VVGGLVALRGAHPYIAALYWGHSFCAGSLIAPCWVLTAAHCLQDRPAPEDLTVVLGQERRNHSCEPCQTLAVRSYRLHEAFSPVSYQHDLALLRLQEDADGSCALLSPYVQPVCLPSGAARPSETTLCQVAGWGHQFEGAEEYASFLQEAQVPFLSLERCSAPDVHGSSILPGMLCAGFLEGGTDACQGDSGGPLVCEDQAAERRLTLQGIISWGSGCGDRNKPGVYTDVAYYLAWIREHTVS
T1 sequence (P00748 20-372 partner limits assumed): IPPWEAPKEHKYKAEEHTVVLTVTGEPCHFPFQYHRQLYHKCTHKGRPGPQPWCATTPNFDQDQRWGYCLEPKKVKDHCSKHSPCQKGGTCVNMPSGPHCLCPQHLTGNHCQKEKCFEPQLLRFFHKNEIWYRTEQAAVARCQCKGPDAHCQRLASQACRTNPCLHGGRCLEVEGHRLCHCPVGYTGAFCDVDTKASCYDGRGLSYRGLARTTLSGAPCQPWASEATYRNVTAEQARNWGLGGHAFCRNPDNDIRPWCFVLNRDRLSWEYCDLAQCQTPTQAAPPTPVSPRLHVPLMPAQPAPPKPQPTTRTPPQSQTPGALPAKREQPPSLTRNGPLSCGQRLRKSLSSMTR
Description: Determination of Human Factor XIIa (hFXIIa) inhibition, fluorogenic substrate IC50 assay. The class given is biochemical. The conditions noted are these: fluorogenic substrate H-DPro-Phe-Arg-AFC at Km, 25° C., read-out: Human FXIIa IC50. As for the experimental part: Determination of Human Factor XIIa (hFXIIa) inhibition
The Km for the cleavage of the substrate by hFXIIa was determined by standard transformation of the Michaelis-Menten equation, with subsequent inhibition assays performed at substrate Km concentration.

The target of experiment [2] is FXa (Homo sapiens, UniProt P00742). Description: Related protease inhibition: FXa, fluorogenic substrate. The conditions noted are these: fluorogenic substrate at Km, 25° C.; H1-H3 = % activity at 40 μM. The class given is biochemical. As for the experimental part:
Human serine protease enzyme Plasma Kallikrein, KLK1, FXa, Plasmin, Thrombin and Trypsin were assayed for enzymatic activity using an appropriate fluorogenic substrate at Km concentration, FXIa at fixed substrate concentration of 100 μM and various concentrations of the test compound.

FXa, sequence (P00742 235-488 limits assumed): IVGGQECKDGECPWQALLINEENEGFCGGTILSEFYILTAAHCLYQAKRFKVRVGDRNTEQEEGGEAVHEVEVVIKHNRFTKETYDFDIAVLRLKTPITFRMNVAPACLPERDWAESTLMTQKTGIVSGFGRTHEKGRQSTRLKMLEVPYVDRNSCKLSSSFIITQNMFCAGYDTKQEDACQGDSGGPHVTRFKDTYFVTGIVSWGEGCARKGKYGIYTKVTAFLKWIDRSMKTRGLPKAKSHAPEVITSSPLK
FXa, sequence (P00742 41-179 partner limits assumed): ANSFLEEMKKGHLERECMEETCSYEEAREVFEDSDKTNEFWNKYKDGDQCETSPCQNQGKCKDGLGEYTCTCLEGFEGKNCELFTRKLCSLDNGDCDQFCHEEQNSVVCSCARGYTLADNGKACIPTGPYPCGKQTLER

As for `COc1cccnc1CNC(=O)c1nn(-c2cccc(Cl)c2)c2c1CCN(c1ccc3c(c1)C(=O)N(C)CC3)C2=O` [Example 1233, 1-(3-chlorophenyl)-N-((3-methoxypyridin-2-yl)methyl)-6-(2-methyl-1-oxo-1,2,3,4-tetrahydroisoquinolin-7-yl)-7-oxo-4,5,6,7-tetrahydro-1H-pyrazolo[3,4-c]pyridine-3-carboxamide], the IC50 in experiment [1] is 100 to 300 nM; in experiment [2], greater than 40000 nM.

As to `CCN1CCc2cc(F)c(N3CCc4c(C(=O)NCc5cc(C6CC6)n[nH]5)nn(-c5cccc(Cl)c5)c4C3=O)cc2C1` [Example 1234, 1-(3-chlorophenyl)-N-((3-cyclopropyl-1H-pyrazol-5-yl)methyl)-6-(2-ethyl-6-fluoro-1,2,3,4-tetrahydroisoquinolin-7-yl)-7-oxo-4,5,6,7-tetrahydro-1H-pyrazolo[3,4-c]pyridine-3-carboxamide], the figures for the IC50 in experiment [1] and in experiment [2] were 10 to 100 nM and 3000 to 10000 nM, respectively.

For `COc1ccc(CNC(=O)c2nn(-c3cccc(Cl)c3)c3c2CCN(c2ccc4c(c2)C(=O)N(C)CC4)C3=O)cn1` [Example 1235, 1-(3-chlorophenyl)-N-((6-methoxypyridin-3-yl)methyl)-6-(2-methyl-1-oxo-1,2,3,4-tetrahydroisoquinolin-7-yl)-7-oxo-4,5,6,7-tetrahydro-1H-pyrazolo[3,4-c]pyridine-3-carboxamide], the results for the IC50 in experiment [1] and in experiment [2] were 100 to 300 nM and greater than 40000 nM, respectively.

For `Cc1ccncc1CNC(=O)c1nn(-c2cccc(Cl)c2)c2c1CCN(c1ccc3c(c1)C(=O)N(CCO)CC3)C2=O` [Example 1236, 1-(3-chlorophenyl)-6-(2-(2-hydroxyethyl)-1-oxo-1,2,3,4-tetrahydroisoquinolin-7-yl)-N-((4-methylpyridin-3-yl)methyl)-7-oxo-4,5,6,7-tetrahydro-1H-pyrazolo[3,4-c]pyridine-3-carboxamide], the values for the IC50 in experiment [1] and in experiment [2] were 10 to 100 nM and greater than 40000 nM, respectively.

For the compound `O=C(NCc1cc(C2CC2)n[nH]1)c1nn(-c2cccc(Cl)c2)c2c1CCN(c1cccc(CN3CCCCC3)c1)C2=O` [Example 1237, 1-(3-chlorophenyl)-N-((3-cyclopropyl-1H-pyrazol-5-yl)methyl)-7-oxo-6-(3-(piperidin-1-ylmethyl)phenyl)-4,5,6,7-tetrahydro-1H-pyrazolo[3,4-c]pyridine-3-carboxamide], the figures for the half-inhibitory concentration (IC50) in experiment [1] and in experiment [2] were 100 to 300 nM and greater than 40000 nM, respectively.

On to `Cc1cc(CNC(=O)c2nn(-c3cccc(Cl)c3)c3c2CCN(c2ccc4c(c2)C(=O)N(C)CCC4)C3=O)nn1C` [Example 1238, 1-(3-Chlorophenyl)-N-[(1,5-dimethylpyrazol-3-yl)methyl]-6-(2-methyl-1-oxo-4,5-dihydro-3H-2-benzazepin-8-yl)-7-oxo-4,5-dihydropyrazolo[3,4-c]pyridine-3-carboxamide], for which the IC50 in experiment [1] fell in the range of 100 to 300 nM; in experiment [2] it was 3000 to 10000 nM.

For the compound `CN1CCCc2ccc(N3CCc4c(C(=O)NCC5CC5)nn(-c5cccc(Cl)c5)c4C3=O)cc2C1=O` [Example 1239, 1-(3-chlorophenyl)-N-(cyclopropylmethyl)-6-(2-methyl-1-oxo-2,3,4,5-tetrahydro-1H-benzo[c]azepin-8-yl)-7-oxo-4,5,6,7-tetrahydro-1H-pyrazolo[3,4-c]pyridine-3-carboxamide], the IC50 in experiment [1] is 100 to 300 nM; in experiment [2], 10000 to 40000 nM.

Turning to `CN1CCc2ccc(N3CCc4c(C(=O)NCc5cc[nH]n5)nn(-c5cccc(Cl)c5)c4C3=O)cc2C1=O` [Example 1245, N-((1H-pyrazol-3-yl)methyl)-1-(3-chlorophenyl)-6-(2-methyl-1-oxo-1,2,3,4-tetrahydroisoquinolin-7-yl)-7-oxo-4,5,6,7-tetrahydro-1H-pyrazolo[3,4-c]pyridine-3-carboxamide], the IC50 in experiment [1] was 100 to 300 nM; in experiment [2] it was greater than 40000 nM.

For the compound `Cc1nc(CNC(=O)c2nn(-c3cccc(Cl)c3)c3c2CCN(c2ccc4c(c2)C(=O)N(C)CC4)C3=O)n[nH]1` [Example 1247, 1-(3-chlorophenyl)-6-(2-methyl-1-oxo-1,2,3,4-tetrahydroisoquinolin-7-yl)-N-((5-methyl-1H-1,2,4-triazol-3-yl)methyl)-7-oxo-4,5,6,7-tetrahydro-1H-pyrazolo[3,4-c]pyridine-3-carboxamide], the figures for the IC50 in experiment [1] and in experiment [2] were 100 to 300 nM and greater than 40000 nM, respectively.

Regarding `Cc1c[nH]nc1CNC(=O)c1nn(-c2cccc(Cl)c2)c2c1CCN(c1ccc3c(c1)C(=O)N(C)CC3)C2=O` [Example 1248, 1-(3-chlorophenyl)-6-(2-methyl-1-oxo-1,2,3,4-tetrahydroisoquinolin-7-yl)-N-((4-methyl-1H-pyrazol-3-yl)methyl)-7-oxo-4,5,6,7-tetrahydro-1H-pyrazolo[3,4-c]pyridine-3-carboxamide], the 50% inhibitory concentration (IC50) in experiment [1] was 100 to 300 nM; in experiment [2] it was 10000 to 40000 nM.

Regarding `CN1CCc2ccc(N3CCc4c(C(=O)NCC5(CO)CC5)nn(-c5cccc(Cl)c5)c4C3=O)cc2C1=O` [Example 1250, 1-(3-chlorophenyl)-N-((1-(hydroxymethyl)cyclopropyl)methyl)-6-(2-methyl-1-oxo-1,2,3,4-tetrahydroisoquinolin-7-yl)-7-oxo-4,5,6,7-tetrahydro-1H-pyrazolo[3,4-c]pyridine-3-carboxamide], the figures for the IC50 in experiment [1] and in experiment [2] were 300 to 1000 nM and greater than 40000 nM, respectively.

Regarding `CN1CCc2ccc(N3CCc4c(C(=O)NCC5(CO)COC5)nn(-c5cccc(Cl)c5)c4C3=O)cc2C1=O` [Example 1252, 1-(3-chlorophenyl)-N-((3-(hydroxymethyl)oxetan-3-yl)methyl)-6-(2-methyl-1-oxo-1,2,3,4-tetrahydroisoquinolin-7-yl)-7-oxo-4,5,6,7-tetrahydro-1H-pyrazolo[3,4-c]pyridine-3-carboxamide], the IC50 in experiment [1] is 300 to 1000 nM; in experiment [2], greater than 40000 nM.

`O=C(NCC1CC1)c1nn(-c2cccc(Cl)c2)c2c1CCN(c1ccc3c(c1)C(=O)N(CCF)CC3)C2=O` [Example 1253, 1-(3-chlorophenyl)-N-(cyclopropylmethyl)-6-(2-(2-fluoroethyl)-1-oxo-1,2,3,4-tetrahydroisoquinolin-7-yl)-7-oxo-4,5,6,7-tetrahydro-1H-pyrazolo[3,4-c]pyridine-3-carboxamide]: the IC50 in experiment [1] was 100 to 300 nM; in experiment [2], greater than 40000 nM.

Turning to `Cc1cc(CNC(=O)c2nn(-c3cccc(Cl)c3)c3c2CCN(c2ccc4c(c2)C(=O)N(CCF)CC4)C3=O)nn1C` [Example 1254, 1-(3-chlorophenyl)-N-((1,5-dimethyl-1H-pyrazol-3-yl)methyl)-6-(2-(2-fluoroethyl)-1-oxo-1,2,3,4-tetrahydroisoquinolin-7-yl)-7-oxo-4,5,6,7-tetrahydro-1H-pyrazolo[3,4-c]pyridine-3-carboxamide], the IC50 fell in the range of 10 to 100 nM in experiment [1] and 10000 to 40000 nM in experiment [2].

As to `Cc1cc(C)c(CNC(=O)c2nn(-c3cccc(Cl)c3)c3c2CCN(c2ccc4c(c2)C(=O)N(CCO)CC4)C3=O)cn1` [Example 1256, 1-(3-chlorophenyl)-N-((4,6-dimethylpyridin-3-yl)methyl)-6-(2-(2-hydroxyethyl)-1-oxo-1,2,3,4-tetrahydroisoquinolin-7-yl)-7-oxo-4,5,6,7-tetrahydro-1H-pyrazolo[3,4-c]pyridine-3-carboxamide], the half-maximal inhibitory concentration (IC50) in experiment [1] is 10 to 100 nM; in experiment [2], greater than 40000 nM.

In the case of `O=C(NCC1CC1)c1nn(-c2cccc(Cl)c2)c2c1CCN(c1ccc3c(c1)C(=O)N(CC1CCOC1)CC3)C2=O` (stereo not drawn) [Example 1257, 1-(3-chlorophenyl)-N-(cyclopropylmethyl)-7-oxo-6-(1-oxo-2-((tetrahydrofuran-3-yl)methyl)-1,2,3,4-tetrahydroisoquinolin-7-yl)-4,5,6,7-tetrahydro-1H-pyrazolo[3,4-c]pyridine-3-carboxamide], the IC50 in experiment [1] is 300 to 1000 nM; in experiment [2], greater than 40000 nM.

With `Cc1cc(CNC(=O)c2nn(-c3cccc(Cl)c3)c3c2CCN(c2ccc4c(c2)C(=O)N(CC2CCOC2)CC4)C3=O)nn1C` (stereo not drawn) [Example 1258, 1-(3-chlorophenyl)-N-((1,5-dimethyl-1H-pyrazol-3-yl)methyl)-7-oxo-6-(1-oxo-2-((tetrahydrofuran-3-yl)methyl)-1,2,3,4-tetrahydroisoquinolin-7-yl)-4,5,6,7-tetrahydro-1H-pyrazolo[3,4-c]pyridine-3-carboxamide], the half-inhibitory concentration (IC50) is 100 to 300 nM in experiment [1] and greater than 40000 nM in experiment [2].

On to `O=C(NCC1CCOC1)c1nn(-c2cccc(Cl)c2)c2c1CCN(c1ccc3c(c1)C(=O)N(CCO)CC3)C2=O` (stereo not drawn) [Example 1260, 1-(3-chlorophenyl)-6-(2-(2-hydroxyethyl)-1-oxo-1,2,3,4-tetrahydroisoquinolin-7-yl)-7-oxo-N-((tetrahydrofuran-3-yl)methyl)-4,5,6,7-tetrahydro-1H-pyrazolo[3,4-c]pyridine-3-carboxamide], for which the IC50 in experiment [1] was 300 to 1000 nM; in experiment [2] it was greater than 40000 nM.
